Results published in US10717731B2, “Nitrogen-containing aromatic heterocyclic compound” (MITSUBISHI TANABE PHARMA CORPORATION, priority 2015, dated 2020).
pIC50: −log10 of the molar value.

target: T1, human CYP11B2 (Homo sapiens, UniProt P19099); experiment: Inhibitory effect on hCYP11B2: aldosterone production in mitochondrial fraction of V79 cells stably expressing human CYP11B2, HTRF; type: biochemical; settings: 0.5 μmol/L deoxycorticosterone, 150 μmol/L NADPH, 1.5-2 hours at room temperature
T1 construct: expressed in transfected cells; mitochondrial fraction
T1 sequence (P19099 25-503): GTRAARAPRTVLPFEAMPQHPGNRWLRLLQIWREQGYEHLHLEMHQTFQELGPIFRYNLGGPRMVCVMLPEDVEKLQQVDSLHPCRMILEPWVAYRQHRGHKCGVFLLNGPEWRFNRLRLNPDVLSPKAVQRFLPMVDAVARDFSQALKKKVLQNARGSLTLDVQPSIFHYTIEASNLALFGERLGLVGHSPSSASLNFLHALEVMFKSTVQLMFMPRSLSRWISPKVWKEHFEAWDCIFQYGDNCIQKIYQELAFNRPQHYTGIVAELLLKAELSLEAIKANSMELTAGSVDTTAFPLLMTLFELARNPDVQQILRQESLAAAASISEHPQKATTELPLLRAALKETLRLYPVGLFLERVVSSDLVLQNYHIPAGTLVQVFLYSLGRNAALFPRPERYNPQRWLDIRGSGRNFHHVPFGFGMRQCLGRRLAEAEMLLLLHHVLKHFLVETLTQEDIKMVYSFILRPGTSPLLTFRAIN
Protocol: Experimental Example 1 (Inhibitory Effect on hCYP11B2)
The pcDNA3.1-human CYP11B2 plasmid was transfected into a Chinese hamster lung fibroblast V79 cell line to produce a cell line stably expressing human CYP11B2 gene.
The cells were cultured and grown in the Dulbecco's modified Eagle's/Ham's medium supplemented with 10% fetal bovine serum and 1% G418 disulfate solution under the environment of 37° C., 95% air, and 5% CO2, and the grown cells were harvested.
Then, the cells were fractionated to obtain mitochondria by reference to a method described in Chabre et al. JCE & M 85 (11) 4060-68, 2000. In particular, the cells suspended in a 5 mmol/L Tris-HCl buffer (pH 7.4) containing 250 mmol/L sucrose were homogenized in a Teflon (Registered Trademark) Potter Elvehjem homogenizer, and then the suspension was centrifuged (800×g, 15 min.). The supernatant was separated and again centrifuged (10000×g, 15 min.) to obtain a pellet (mitochondrial fraction).
The mitochondrial fraction diluted with a buffer containing 10 mmol/L KH2PO4, 10 mmol/L Tris, 20 mmol/L KCl, 25 mmol/L sucrose, 5 mmol/L MgCl2, and 0.05% bovine serum albumin was dispensed to a 96-well plate. 0.5 μmol/L Deoxycorticosterone, 150 μmol/L NADPH and a compound of each concentration were added to each well, and incubated for 1.5-2 hours at room temperature to produce aldosterone. An amount of the produced aldosterone in the incubated solution was determined by using HTRF (Homogeneous Time Resolved Fluorescence) method.
IC50 (nmol/L) was calculated by analyzing the aldosterone production inhibition rate (%) of each concentration of compounds by non-linear regression to a logistic curve.

| pIC50 | SMILES |
| --- | --- |
| 8.12 | CC(C)NC(=O)CN1CCN(c2cncc(-c3ccc4cnn(C)c4c3)n2)CC1 [Example 49] |
| 7.85 | CC(C)(C)OC(=O)N1C2COCC1CC(NC(=O)CN1CCN(c3cncc(-c4ccc(F)cc4)c3)CC1)C2 (centres unmarked) [Example 5] |
| 8.37 | CC(C)[C@@H](CO)NC(=O)CN1CCN(c2cncc(-c3ccc(Cl)cc3)n2)CC1 [Example 39] |
| 8.04 | Cc1ccc(-c2cncc(N3CCN(CC(=O)NC4CC5COCC(C4)C5O)CC3)c2)cc1 (centres unmarked) [Example 10] |
| 7.85 | CO[C@H]1CC[C@@H](NC(=O)CN2CCN(c3cncc(-c4ccc5cnn(C)c5c4)n3)CC2)CC1 [Example 26] |
| 8.04 | COC1CCN(NC(=O)CN2CCN(c3cc(-c4ccc(Cl)cc4)cnn3)CC2)CC1 [Example 65] |
| 7.89 | CN(C)[C@H]1CC[C@@H](NC(=O)CN2CCN(c3cncc(-c4ccc(F)cc4)c3)CC2)CC1 [Example 6] |
| 7.08 | Cc1c(-c2ccc(F)cc2)cnnc1N1CCN(CC(=O)NC(C)C)CC1 [Example 92] |
| 7.92 | CN1CCC(NC(=O)CN2CCN(c3cc(-c4ccc(Cl)cc4)cnn3)CC2)CC1=O (single isomer, unassigned) [Example 91b] |
| 6.99 | COCc1ccc(-c2cnnc(N3CCN(CC(=O)N[C@H]4CC[C@@H](N(C)C)CC4)CC3)c2)cc1 [Example 76] |
| 7.52 | CN1CCC(NC(=O)CN2CCN(c3cc(-c4ccc(Cl)cc4)cnn3)CC2)CC1=O (single isomer, unassigned) [Example 91a] |

The next lines start with the compound.

| SMILES | pIC50 |
| --- | --- |
| Cc1ccccc1-c1cncc(N2CCN(CC(=O)Nc3cnn(C)c3)CC2)c1 [Example 7] | 8.32 |
| CC(C)(C)OC(=O)N1CCN(CCNC(=O)CN2CCN(c3cc(-c4ccc(F)cc4)cnn3)CC2)CC1 [Example 64] | 8.18 |
| C[C@@H]1CN(c2cncc(-c3ccc(C(F)(F)F)cc3)n2)CCN1CC(=O)N[C@H]1CCC[C@H]1O [Example 46] | 7.59 |
| O=C(CN1CCN(c2cc(-c3ccc(F)cc3)cnn2)CC1)NC1CCC(N2CCOCC2)CC1 (centres unmarked) [Example 72] | 7.96 |
| CC1CCC(c2cncc(N3CCN(CC(=O)NC(C)C)CC3)n2)CC1 (centres unmarked) [Example 52] | 7.74 |
| CC(C)NC(=O)CN1CCN(c2cncc(-c3ccc4c(cnn4C)c3)n2)CC1 [Example 50] | 7.32 |
| CNC(=O)COC1CCC(NC(=O)CN2CCN(c3cc(-c4ccc(F)cc4)cnn3)CC2)CC1 (centres unmarked) [Example 66] | 8.02 |
| C[C@H](O)CNC(=O)CN1CCN(c2cc(-c3ccc(F)cc3)cnn2)CC1 [Example 63] | 8.06 |
| O=C(CN1CCN(c2cncc(-c3ccc(F)cc3)c2)CC1)NC1CCn2ccnc2C1 (centres unmarked) [Example 1] | 8.18 |
| CS(=O)(=O)CCN1CCC(NC(=O)CN2CCN(c3cncc(-c4ccc(F)cc4)n3)CC2)CC1 [Example 35] | 8.07 |
| O=C(CN1CCN(c2cncc(-c3ccc(F)cc3)n2)CC1)N[C@H]1CC[C@@H](N2CCOCC2)CC1 [Example 32] | 8.02 |

target: T2, human Cyp11B1 (Homo sapiens, UniProt P15538); experiment: Selectivity: IC50 against human Cyp11B2 compared with human Cyp11B1; type: biochemical; settings: ratio of IC50 values (nM)
T2 sequence (P15538 25-503): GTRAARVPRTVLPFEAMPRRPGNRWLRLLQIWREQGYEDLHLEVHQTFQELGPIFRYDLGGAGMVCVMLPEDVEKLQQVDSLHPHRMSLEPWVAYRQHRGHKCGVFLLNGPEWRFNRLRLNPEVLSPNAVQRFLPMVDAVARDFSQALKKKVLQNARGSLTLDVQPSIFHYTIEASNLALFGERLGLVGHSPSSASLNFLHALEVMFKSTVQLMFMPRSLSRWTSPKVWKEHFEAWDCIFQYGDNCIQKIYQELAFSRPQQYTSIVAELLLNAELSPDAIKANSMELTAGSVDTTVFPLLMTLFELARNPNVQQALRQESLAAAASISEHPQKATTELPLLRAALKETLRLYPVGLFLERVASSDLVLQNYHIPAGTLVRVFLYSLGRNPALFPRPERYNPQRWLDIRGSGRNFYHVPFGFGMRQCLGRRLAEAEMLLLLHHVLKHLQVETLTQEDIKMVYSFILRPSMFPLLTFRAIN

| IC50 value against human Cyp11B2 versus human Cyp11B1 (selectivity) | SMILES |
| --- | --- |
| 100 times | CC(C)NC(=O)CN1CCN(c2cncc(-c3ccc4cnn(C)c4c3)n2)CC1 [Example 49] |
